Legend:
P-selectin = target: T1, P-selectin (Homo sapiens, UniProt P16109); test: Concentration required to inhibit the interaction of Selectin P and HL-60 cells; format: cell-based
T1 sequence (P16109 whole entry): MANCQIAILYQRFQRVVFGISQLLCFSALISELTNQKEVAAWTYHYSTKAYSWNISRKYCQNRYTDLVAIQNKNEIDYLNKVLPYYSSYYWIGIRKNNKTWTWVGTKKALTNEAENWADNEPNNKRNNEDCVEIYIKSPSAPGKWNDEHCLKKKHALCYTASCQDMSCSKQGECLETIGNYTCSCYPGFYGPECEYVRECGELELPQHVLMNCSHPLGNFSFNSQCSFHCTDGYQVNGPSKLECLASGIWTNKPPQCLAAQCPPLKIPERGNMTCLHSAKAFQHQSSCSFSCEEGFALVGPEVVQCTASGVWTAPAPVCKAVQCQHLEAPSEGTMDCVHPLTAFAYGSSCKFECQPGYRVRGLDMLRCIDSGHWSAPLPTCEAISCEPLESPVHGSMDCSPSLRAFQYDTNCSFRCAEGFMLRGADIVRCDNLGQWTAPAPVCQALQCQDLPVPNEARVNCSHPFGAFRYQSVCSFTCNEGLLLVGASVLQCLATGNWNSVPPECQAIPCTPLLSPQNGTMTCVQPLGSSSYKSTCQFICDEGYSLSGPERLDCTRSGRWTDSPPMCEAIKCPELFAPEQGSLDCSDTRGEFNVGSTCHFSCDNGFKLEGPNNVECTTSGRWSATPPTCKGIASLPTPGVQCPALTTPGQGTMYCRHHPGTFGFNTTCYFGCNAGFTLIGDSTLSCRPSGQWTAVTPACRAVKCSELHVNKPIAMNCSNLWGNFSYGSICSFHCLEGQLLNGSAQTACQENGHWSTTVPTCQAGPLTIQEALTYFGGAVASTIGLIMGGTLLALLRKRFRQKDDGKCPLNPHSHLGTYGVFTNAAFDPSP

E-selectin = target: T2, E-selectin (Homo sapiens, UniProt P16581); test: Concentration required to inhibit the interaction of Selectin E and HL-60 cells; format: cell-based
T2 sequence (P16581 whole entry): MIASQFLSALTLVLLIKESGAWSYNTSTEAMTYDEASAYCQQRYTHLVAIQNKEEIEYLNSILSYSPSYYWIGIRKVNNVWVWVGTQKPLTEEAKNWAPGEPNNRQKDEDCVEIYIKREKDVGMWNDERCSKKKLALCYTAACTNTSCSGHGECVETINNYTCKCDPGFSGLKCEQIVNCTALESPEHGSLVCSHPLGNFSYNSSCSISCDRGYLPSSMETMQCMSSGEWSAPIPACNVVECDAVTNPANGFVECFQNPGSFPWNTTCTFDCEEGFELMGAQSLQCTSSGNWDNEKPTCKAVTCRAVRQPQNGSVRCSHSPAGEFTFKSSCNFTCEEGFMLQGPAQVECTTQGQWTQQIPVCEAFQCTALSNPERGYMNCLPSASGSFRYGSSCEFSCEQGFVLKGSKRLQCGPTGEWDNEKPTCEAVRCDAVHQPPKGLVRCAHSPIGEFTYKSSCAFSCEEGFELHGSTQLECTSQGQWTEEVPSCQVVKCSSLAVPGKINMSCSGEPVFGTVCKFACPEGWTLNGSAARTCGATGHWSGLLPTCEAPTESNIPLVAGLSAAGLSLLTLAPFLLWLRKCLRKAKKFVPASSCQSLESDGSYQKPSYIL

| IC50 (P-selectin) | IC50 (E-selectin) | Compound |
| --- | --- | --- |
| 4.5 mM | 5 mM | CC(=O)N[C@H]1[C@H]([C@H](O)[C@H](O)CO)O[C@@](O[C@H]2[C@@H](O)[C@@H](CO)O[C@@H](O[C@@H]([C@H](O[C@@H]3O[C@@H](C)[C@@H](O)[C@@H](O)[C@@H]3O)[C@H](C=O)NC(C)=O)[C@H](O)CO)[C@@H]2O)(C(=O)O)C[C@@H]1O (single isomer, unassigned; enantiomer B) [SIALYL LEWIS X] |
| 5.5 mM | 5 mM | CC(=O)N[C@H]1[C@H]([C@H](O)[C@H](O)CO)O[C@@](O[C@H]2[C@@H](O)[C@@H](CO)O[C@@H](O[C@@H]([C@H](O[C@@H]3O[C@@H](C)[C@@H](O)[C@@H](O)[C@@H]3O)[C@H](C=O)NC(C)=O)[C@H](O)CO)[C@@H]2O)(C(=O)O)C[C@@H]1O [SIALYL LEWIS X] |
| 5 mM | 7 mM | CC(=O)N[C@H]1[C@H]([C@H](O)[C@H](O)CO)O[C@@](O[C@H]2[C@@H](O)[C@@H](CO)O[C@@H](O[C@@H]([C@H](O[C@@H]3O[C@@H](C)[C@@H](O)[C@@H](O)[C@@H]3O)[C@H](C=O)NC(C)=O)[C@H](O)CO)[C@@H]2O)(C(=O)O)C[C@@H]1O (single isomer, unassigned; enantiomer A) [SIALYL LEWIS X] |

— ChEMBL document CHEMBL1134244, “Design and synthesis of a new sialyl Lewis X mimetic: how selective are the selectin receptors?” (Bioorg Med Chem Lett, 2001)
